How the values were obtained:
Type in all cases: in vivo
[1] = tested on: Arabidopsis Group 1 line R127; assay: Root growth dose response of Group 1 line R127
Description: (§1) The dose responses of root growth of the mutant lines treated with a variety of auxins were measured to define the level and chemical spectrum of resistance in detail.
Four additional herbicidal compounds were also tested on the Group 1 line, R127.

[2] = tested on: Arabidopsis Group 1 (afb5) and Group 2 (sgt1b) mutant lines; assay: Root growth dose response of picolinate auxin resistant mutants, complementation Groups 1 and 2
Description: FIGS. 1A-1D. […] Root lengths of Arabidopsis seedlings were measured 8 days after seeding on plates containing a range of concentrations of the test compounds and are plotted as a percentage of the root length of untreated plants in the same experiment. […] The symbols used for wild type, R009 from complementation Group 1 and R051 from complementation Group 2 are denoted in FIG. 1A.
To identify mutants resistant to picolinate auxins, EMS-mutagenized M2 seedlings were screened for resistance to DAS534, a 6-phenylpicolinate auxin (Compound 173 in WO 03/011853A1). The seedlings were grown on agarose medium containing 10 nM DAS534. […] Selection of lines for further study was based on the strength of resistance, elimination of potential siblings and the health and fertility of adult plants.
as §1

[3] = tested on: Arabidopsis mutant line R090; assay: Seedling resistance screen, line R090; settings: line R090, allelic to axr1-3
Description: (§2) To identify mutants resistant to picolinate auxins, EMS-mutagenized M2 seedlings were screened for resistance to DAS534, a 6-phenylpicolinate auxin (Compound 173 in WO 03/011853A1). The seedlings were grown on agarose medium containing 10 nM DAS534. This concentration was sufficient to produce marked auxinic effects on the seedlings including significant inhibition (60%) of root growth. From a total of 780,100 EMS M2 seedlings, 125 putative resistant mutants were identified by visual inspection. Seeds were recovered from 33 of these plants. Selection of lines for further study was based on the strength of resistance, elimination of potential siblings and the health and fertility of adult plants.
The mutants were crossed with wild-type Col-0 plants and the progeny were analyzed for resistance to DAS534. […] To determine the number of genetic loci identified in this screen, complementation tests were performed by crossing the herbicide-resistant mutants with each other and the known auxin-resistant mutant axr1-3 in a pair-wise fashion. […] Complementation Group 1 contained the mutants R009, R024, R045 and R127, and complementation Group 2 contained the mutants R051, R107 and R118. All seven selectively-resistant mutant lines were phenotypically normal when grown on agarose medium or in soil and they had normal fertility. […]

[4] = tested on: Arabidopsis mutant tir1-1; assay: Root growth response of mutant tir1-1
Description: (§3) FIGS. 5A-5C. Comparison of the effect of DAS534 and 2,4-D on previously characterized mutants. Measurements were performed as described in FIG. 2. Typical root lengths for untreated controls were 20, 39 and 31 mm for tir1-1, axr2-1 and axr1-3 plants respectively. (FIG. 5A) Effect of DAS534 on edm1 and R051. The deletion mutant line edm1 lacks seven genes (At4g11220 through At4g11280) including SGT1b (Tor et al., Plant Cell 14: 993-1003, 2002). Effect of DAS534 (FIG. 5B) and 2,4-D (FIG. 5C) on axr1-3, axr2-1 and tir1-1 compared with R009 and R051.

[5] = tested on: Group 1 mutant R009 Arabidopsis plants; assay: Foliar spray application in the greenhouse, AFB5 mutant; settings: 12 days after treatment
Description: (§4) FIGS. 8A-8C show a comparison of the effect of a foliar application of 200 g/ha picloram (FIG. 8A), 200 g/ha aminopyralid (FIG. 8B) or 50 g/ha 2,4-D (FIG. 8C) on wild type Col-0 and mutant R009 Arabidopsis plants. Pictures were taken 12 days after treatment of 17-day old plants.
(§5) Arabidopsis seedlings were grown for two weeks in a growth chamber (23° C.; continuous light at 120-150 μE m^−2 sec^−1), then taken to the greenhouse for three days after which plants were sprayed with herbicide using a track-sprayer to deliver the appropriate rate. Plants were then grown in the greenhouse for 12 days (22° C. under supplemented light with a 14 h: 10 h light-dark cycle) prior to photography and evaluation. […] Thus the chemical selectivity of resistance seen in seedling plate assays is maintained in adult plants with foliar exposure to the auxin herbicides.

[6] = tested on: Arabidopsis mutant axr1-3; assay: Root growth response of mutant axr1-3
Description: as §3
The mutant axr1-3 is defective in the rubinylation mechanism required to activate SCF complexes. […] The axr1-3 mutant was also very resistant to picloram (160-fold). […] This is consistent with its general role in the activation of SCF complexes (Schwechheimer et al., Plant Cell. 14(10):2553-2563, 2002).

[7] = tested on: wild type Col-0 Arabidopsis plants; assay: Foliar spray application in the greenhouse, wild type; settings: 12 days after treatment
Description: as §4, §5

[8] = tested on: Arabidopsis seedlings (wild type / EMS M2); assay: Seedling plate assay on agarose medium, root growth and morphology
Description: FIGS. 1A-1D. Differential effects of auxins on root growth of mutants from complementation Groups 1 and 2. Root lengths of Arabidopsis seedlings were measured 8 days after seeding on plates containing a range of concentrations of the test compounds and are plotted as a percentage of the root length of untreated plants in the same experiment. Typical root lengths for untreated controls were 21, 21 and 24 mm for wild-type, Group 1, and Group 2 plants respectively. The symbols used for wild type, R009 from complementation Group 1 and R051 from complementation Group 2 are denoted in FIG. 1A.
as §2

[9] = tested on: Arabidopsis deletion mutant line edm1; assay: Root growth response of deletion mutant edm1; settings: edm1, data not shown
Description: as §3
The R051 mutation was mapped to a 100 kb interval on chromosome 4 around 36 cM between markers C4—36 and C4—37 (FIG. 3). This interval contains 17 genes including At4g11260 which encodes the tetratricopeptide-repeat containing protein, SGT1b (SEQ ID NO: 4). […] The deletion mutant line edm1 lacks seven genes (At4g11220 through At4g11280) including SGT1b (Tor et al., Plant Cell 14: 993-1003, 2002). […] It was also very cross-resistant to picloram (20-fold, data not shown) similar to the Group 2 mutants. To determine if the DAS534-resistant mutants in complementation Group 2 contained mutations in SGT1b, At4g11260 was PCR amplified from genomic DNA from all three of the mutants. […]

**Q.** For `O=C(O)Cc1cccc2ccccc12` [1-naphthylacetic acid], which “resistance or difference in response, in words” value (from here on “resistance or difference”) [1] is on record?
**A.** The value was “no resistance”.

**Q.** What does the source list for `O=C(O)COc1ccc(Cl)cc1Cl` [2,4-D]?
**A.** cross resistance of DAS534-resistant lines ([2]; 0.045 μM 2,4-D, seven lines R009, R024, R045, R127, R051, R107, R118): negligible resistance; resistance of the mutant lines, in words ([2]; root growth dose response, both complementation groups): negligible resistance; resistance of line R090 [3]: robust resistance; level of resistance, in words [4]: significantly lower levels of resistance to 2,4-D than axr1; effect of foliar spray application ([5]; 50 g/ha): auxinic symptoms and growth reduction; level of resistance, in words [6]: high level of resistance; effect of foliar spray application ([7]; 50 g/ha, wild type): auxinic symptoms and growth reduction

**Q.** Which results are given for `Nc1c(F)c(-c2ccc(Cl)cc2)nc(C(=O)O)c1Cl` [DAS534, 4-amino-3-chloro-5-fluoro-6-(4-chlorophenyl)pyridine-2-carboxylic acid]?
**A.** hypocotyl elongation and cotyledon expansion ([2]; Group 1 mutant R127 and Group 2 mutant R051, 5 nM DAS534): unaffected; resistance of line R090 [3]: robust resistance; level of resistance, in words [4]: modest level of resistance; inhibition at 0.01 µM ([8]; Arabidopsis thaliana, 10 nM DAS534 in agarose medium): 60%; visible auxinic effects on seedlings ([8]; wild-type plants, 5 nM DAS534): slight agravitopism, have elongated hypocotyls and are unable to fully expand their cotyledons; level of resistance, in words [6]: high level of resistance

**Q.** With `Nc1cc(Cl)nc(C(=O)O)c1Cl` [aminopyralid] as the molecule, how does the “effect of foliar spray application” value ([5]; 200 g/ha) read?
**A.** Its value is “minimal effect”.

**Q.** And the “effect of foliar spray application” value ([7]; 200 g/ha, wild type Col-0)?
**A.** Its value is “profound morphological effects and severely inhibited plant growth”.

**Q.** `O=C(O)c1nc(Cl)ccc1Cl` [clopyralid] was tested. Which fold resistance [1] did it give?
**A.** Its fold resistance is 50 fold.

**Q.** Which “resistance or difference” value [1] does the source give for `COc1c(Cl)ccc(Cl)c1C(=O)O` [dicamba] here?
**A.** The value was “no resistance”.

**Q.** With `O=C(O)c1ccccc1C(=O)Nc1cccc2ccccc12` [napthylphthalamic acid] as the molecule, how does the “resistance or difference” value [1] read?
**A.** The value was “no difference in response”.

**Q.** `Nc1c(Cl)c(Cl)nc(C(=O)O)c1Cl` [picloram] was tested. Which “level of resistance, in words” value [4] did it give?
**A.** The value was “slightly more resistant”.

**Q.** What about the cross-resistance [9] of the same molecule?
**A.** Its cross-resistance is 20 fold.

**Q.** And the “effect of foliar spray application” value ([5]; 200 g/ha)?
**A.** Its value is “minimal effect”.

**Q.** What about the fold resistance [6] of the same molecule?
**A.** The fold resistance was 160 fold.

**Q.** And the “effect of foliar spray application” value ([7]; 200 g/ha, wild type Col-0)?
**A.** The value was “profound morphological effects and severely inhibited plant growth”.

Source: patent US8603755B2, “Resistance to auxinic herbicides” (Dow AgroSciences, LLC., priority 2006, dated 2013)
